Assay results reported in ChEMBL document CHEMBL4616710, “Discovery of a Potent Anticancer Agent PVHD303 with in Vivo Activity” (ACS Med Chem Lett, 2020).

Tests used:
A549 [1] = test: Antiproliferative activity against human A549 cells assessed as cell growth inhibition incubated for 72 hrs by CellTiter96 Aqueous one solution cell proliferation assay; format: functional, cell-based; details: A549, 72 h
A549 [2] = test: Antiproliferative activity against human A549 cells assessed as cell growth inhibition; format: functional, cell-based
HeLa [3] = test: Antimitotic activity against human HeLa cells assessed as proportion of cells with bipolar spindles at 4 nM measured after 16 to 18 hrs by DAPI-staining based fluorescence microscopy analysis relative to control; format: functional
HeLa [4] = test: Antimitotic activity against human HeLa cells assessed as proportion of cells with bipolar spindles at 16 nM measured after 16 to 18 hrs by DAPI-staining based fluorescence microscopy analysis relative to control; format: functional
HeLa [5] = test: Antimitotic activity against human HeLa cells assessed as proportion of cells with diffuse alpha-tubulin at 12 nM measured after 16 to 18 hrs by DAPI-staining based fluorescence microscopy analysis relative to control; format: functional
HeLa [6] = test: Antimitotic activity against human HeLa cells assessed as proportion of cells with bipolar spindles at 12 nM measured after 16 to 18 hrs by DAPI-staining based fluorescence microscopy analysis relative to control; format: functional
HeLa [7] = test: Antimitotic activity against human HeLa cells assessed as proportion of cells with diffuse alpha-tubulin at 16 nM measured after 16 to 18 hrs by DAPI-staining based fluorescence microscopy analysis relative to control; format: functional
HCT-116 [8] = test: Antitumor activity against human HCT116 cells xenografted in BALB/c nude mouse assessed as tumor growth inhibition at 20 mg/kg, iv qd administered on day 1,3,5,8,10,12,15,17,19 and measured on day 22 by caliper method relative to control; format: functional; details: HCT-116, iv, read-out: TGI
HCT-116 [9] = test: Antiproliferative activity against human HCT116 cells assessed as cell growth inhibition incubated for 72 hrs by CellTiter96 Aqueous one solution cell proliferation assay; format: functional, cell-based; details: HCT-116, 72 h
HeLa [10] = test: Antimitotic activity against human HeLa cells assessed as proportion of mitotic cells at 16 nM measured after 16 to 18 hrs by DAPI-staining based fluorescence microscopy analysis relative to control; format: functional
HeLa [11] = test: Antimitotic activity against human HeLa cells assessed as proportion of cells with bipolar spindles at 8 nM measured after 16 to 18 hrs by DAPI-staining based fluorescence microscopy analysis relative to control; format: functional
HeLa [12] = test: Antimitotic activity against human HeLa cells assessed as proportion of mitotic cells at 8 nM measured after 16 to 18 hrs by DAPI-staining based fluorescence microscopy analysis relative to control; format: functional
HCT-116 [13] = test: Antitumor activity against human HCT116 cells xenografted in iv dosed BALB/c nude mouse assessed as tumor growth inhibition administered once daily on day 1,3,5,8,10,12,15,17,19 and measured on day 22 by caliper method; format: functional, organism-based
HeLa [14] = test: Antimitotic activity against human HeLa cells assessed as proportion of mitotic cells at 4 nM measured after 16 to 18 hrs by DAPI-staining based fluorescence microscopy analysis relative to control; format: functional
HeLa [15] = test: Antimitotic activity against human HeLa cells assessed as proportion of cells with diffuse alpha-tubulin at 4 nM measured after 16 to 18 hrs by DAPI-staining based fluorescence microscopy analysis relative to control; format: functional
HeLa [16] = test: Antimitotic activity against human HeLa cells assessed as proportion of mitotic cells at 12 nM measured after 16 to 18 hrs by DAPI-staining based fluorescence microscopy analysis relative to control; format: functional
HeLa [17] = test: Antimitotic activity against human HeLa cells assessed as proportion of cells with microtubule disruption around the condensed chromosomes and unseparated centrosome at 4 nM measured after 16 to 18 hrs by anti-alpha-tubulin/anti-gamma-tubulin antibodies based immunostaining/DAPI-staining based fluorescence microscopy analysis relative to control; format: functional
HCT-116 [18] = test: Antitumor activity against human HCT116 cells xenografted in BALB/c nude mouse assessed as tumor growth inhibition at 10 mg/kg, iv qd administered on day 1,3,5,8,10,12,15,17,19 and measured on day 22 by caliper method relative to control; format: functional; details: HCT-116, iv, read-out: TGI
HeLa [19] = test: Antimitotic activity against human HeLa cells assessed as proportion of cells with irregular spindles at 16 nM measured after 16 to 18 hrs by DAPI-staining based fluorescence microscopy analysis relative to control; format: functional
HeLa [20] = test: Antimitotic activity against human HeLa cells assessed as proportion of cells with diffuse alpha-tubulin at 8 nM measured after 16 to 18 hrs by DAPI-staining based fluorescence microscopy analysis relative to control; format: functional
HeLa [21] = test: Antimitotic activity against human HeLa cells assessed as proportion of cells with irregular spindles at 4 nM measured after 16 to 18 hrs by DAPI-staining based fluorescence microscopy analysis relative to control; format: functional
HeLa [22] = test: Antimitotic activity against human HeLa cells assessed as proportion of cells with irregular spindles at 12 nM measured after 16 to 18 hrs by DAPI-staining based fluorescence microscopy analysis relative to control; format: functional
HeLa [23] = test: Antimitotic activity against human HeLa cells assessed as proportion of cells with microtubule disruption around the condensed chromosomes and unseparated centrosome at 12 nM measured after 16 to 18 hrs by anti-alpha-tubulin/anti-gamma-tubulin antibodies based immunostaining/DAPI-staining based fluorescence microscopy analysis relative to control; format: functional
HeLa [24] = test: Antimitotic activity against human HeLa cells assessed as proportion of cells with microtubule disruption around the condensed chromosomes and unseparated centrosome at 16 nM measured after 16 to 18 hrs by anti-alpha-tubulin/anti-gamma-tubulin antibodies based immunostaining/DAPI-staining based fluorescence microscopy analysis relative to control; format: functional
HeLa [25] = test: Antimitotic activity against human HeLa cells assessed as proportion of cells with microtubule disruption around the condensed chromosomes and unseparated centrosome at 8 nM measured after 16 to 18 hrs by anti-alpha-tubulin/anti-gamma-tubulin antibodies based immunostaining/DAPI-staining based fluorescence microscopy analysis relative to control; format: functional
HeLa [26] = test: Antimitotic activity against human HeLa cells assessed as proportion of cells with irregular spindles at 8 nM measured after 16 to 18 hrs by DAPI-staining based fluorescence microscopy analysis relative to control; format: functional

## COc1ccc(C(C)(O)c2ncnc3c(Cl)cccc23)cc1 (centres undefined)
A549 [1]
  IC50: 0.24 µM

## C=Cc1nc(C(C)(O)c2ccc(OC)cc2)c2ccccc2n1 (centres undefined)
A549 [1]
  IC50: 0.027 µM

## COc1ccc(C(C)(O)c2ncnc3ccc(C)cc23)cc1 (centres undefined)
A549 [1]
  IC50: 1.1 µM

## COc1ccc(C(C)(O)c2nc(N3CC3)nc3ccccc23)cc1 (centres undefined)
A549 [1]
  IC50: 0.22 µM

## COc1ccc(C(C)(O)c2nc(-c3ccsc3C(C)=O)nc3ccccc23)cc1 (centres undefined)
A549 [1]
  IC50: 0.052 µM

## COc1ccc(C(C)(O)c2nc(N3CCSC3)nc3ccccc23)cc1 (centres undefined)
A549 [1]
  IC50: 0.58 µM

## COc1ccc(C(C)(O)c2ncnc3c(F)cccc23)cc1 (centres undefined)
A549 [1]
  IC50: 0.43 µM

## COc1ccc(C(C)(O)c2ncnc3cc(Cl)ccc23)cc1 (centres undefined)
A549 [1]
  IC50: 0.87 µM

## COc1ccc(C(C)(O)c2nc(-c3ccc4c(c3)OCO4)nc3ccccc23)cc1 (centres undefined)
A549 [1]
  IC50: 1.17 µM

## COc1ccc(C(C)(O)c2nc(Br)nc3ccccc23)cc1 (centres undefined)
A549 [1]
  IC50: 0.05 µM

## COc1ccc(C(C)(O)c2nc(N3CCC(O)CC3)nc3ccccc23)cc1 (centres undefined)
A549 [1]
  IC50: 9.32 µM

## COc1ccc(C(C)(O)c2nc(N3CCC(F)CC3)nc3ccccc23)cc1 (centres undefined)
A549 [1]
  IC50: 0.76 µM

## COc1ccc(C(C)(O)c2ncnc3c(C)cccc23)cc1 (centres undefined)
A549 [1]
  IC50: 1.56 µM

## COc1ccc(C(C)(O)c2nc(-c3cn[nH]c3)nc3ccccc23)cc1 (centres undefined)
A549 [1]
  IC50: 0.254 µM

## COc1ccc(C(C)(O)c2nc(-c3ccc(C(F)(F)F)cc3)nc3ccccc23)cc1 (centres undefined)
A549 [1]
  IC50: 1.59 µM

## COc1ccc(C(C)(O)c2nc(-c3c(C)noc3C)nc3ccccc23)cc1 (centres undefined)
A549 [1]
  IC50: 0.059 µM

## COc1ccc(C(C)(O)c2ncnc3ccc(OC)cc23)cc1 (centres undefined)
A549 [1]
  IC50: 5.16 µM

## COc1ccc(C(C)(O)c2nc(N)nc3ccccc23)cc1 (centres undefined)
A549 [1]
  IC50: 0.05 µM

## COc1ccc(C(C)(O)c2ncnc3cc(F)ccc23)cc1 (centres undefined)
A549 [1]
  IC50: 4.67 µM

## COc1ccc(C(C)(O)c2ncnc3ccc(Cl)cc23)cc1 (centres undefined)
A549 [1]
  IC50: 0.08 µM

## C/C=C\c1nc(C(C)(O)c2ccc(OC)cc2)c2ccccc2n1 (centres undefined)
A549 [1]
  IC50: 0.38 µM

## COc1ccc(C(C)(O)c2nc(C3CC3)nc3ccccc23)cc1 (centres undefined)
A549 [1]
  IC50: 0.637 µM

## COc1ccc(C(C)(O)c2nc(-c3ccc(F)cc3)nc3ccccc23)cc1 (centres undefined)
A549 [1]
  IC50: 0.048 µM

## COc1ccc(C(C)(O)c2nc(-c3coc(C=O)c3)nc3ccccc23)cc1 (centres undefined)
A549 [1]
  IC50: 1.01 µM

## COc1ccc(C(C)(O)c2ncnc3c(OC)cccc23)cc1 (centres undefined)
A549 [1]
  IC50: 2.1 µM

## COc1ccc(C(C)(O)c2nc(-n3cccc3)nc3ccccc23)cc1 (centres undefined)
A549 [1]
  IC50: 0.05 µM

## COc1ccc(C(C)(O)c2ncnc3cc(OC)ccc23)cc1 (centres undefined)
A549 [1]
  IC50: > 25 µM

## COc1ccc(C(C)(O)c2nc(-c3ccco3)nc3ccccc23)cc1 (centres undefined)
A549 [1]
  IC50: 0.036 µM

## COc1ccc(C(C)(O)c2nc(-c3cccnc3)nc3ccccc23)cc1 (centres undefined)
A549 [1]
  IC50: 0.06 µM

## COc1ccc(C(C)(O)c2nc(N3CCC(F)(F)CC3)nc3ccccc23)cc1 (centres undefined)
A549 [1]
  IC50: 4.91 µM

## COc1ccc(C(C)(O)c2nc(N3CCC(OC)CC3)nc3ccccc23)cc1 (centres undefined)
A549 [1]
  IC50: 1.22 µM

## CC[C@]1(O)C[C@@H]2CN(CCc3c([nH]c4ccccc34)[C@@](C(=O)OC)(c3cc4c(cc3OC)N(C)[C@H]3[C@@](O)(C(=O)OC)[C@H](OC(C)=O)[C@]5(CC)C=CCN6CC[C@]43[C@@H]65)C2)C1 [VINBLASTINE]
A549 [1]
  IC50: 0.021 µM

## CNc1nc(C(C)(O)c2ccc(OC)cc2)c2ccccc2n1 (centres undefined)
A549 [1]
  IC50: 0.02 µM

## COc1ccc(C(C)(O)c2ncnc3cccc(F)c23)cc1 (centres undefined)
A549 [1]
  IC50: 12 µM

## COc1ccc(C(C)(O)c2nc(N3CCC3)nc3ccccc23)cc1 (centres undefined)
A549 [1]
  IC50: 1.1 µM

## COc1ccc(C(C)(O)c2nc(N3CCOCC3)nc3ccccc23)cc1 (centres undefined)
A549 [2]
  IC50: 0.14 µM

## COc1ccc(C(C)(O)c2nc(N3CCC(Cl)CC3)nc3ccccc23)cc1 (centres undefined)
A549 [1]
  IC50: 3.67 µM

## COc1ccc(C(C)(O)c2nc(-c3ccc(C#N)s3)nc3ccccc23)cc1 (centres undefined)
A549 [1]
  IC50: 0.013 µM

## COc1ccc(C(C)(O)c2nc(N3CC=CC3)nc3ccccc23)cc1 (centres undefined)
A549 [1]
  IC50: 0.22 µM

## COc1ccc(C(C)(O)c2nc(-c3cccs3)nc3ccccc23)cc1 (centres undefined)
A549 [1]
  IC50: 0.048 µM

## COc1ccc(C(C)(O)c2nc(-c3ccc(O)cc3)nc3ccccc23)cc1 (centres undefined)
A549 [1]
  IC50: 1.41 µM

## COc1ccc(C(C)(O)c2nc(-c3ccc(Cl)s3)nc3ccccc23)cc1 (centres undefined)
A549 [1]
  IC50: 0.895 µM

## COc1ccc(C(C)(O)c2ncnc3cc(C)ccc23)cc1 (centres undefined)
A549 [1]
  IC50: > 25 µM

## COc1ccc(C(C)(O)c2ncnc3ccc(F)cc23)cc1 (centres undefined)
A549 [1]
  IC50: 0.35 µM

## COC(=O)Nc1nc2cc(C(=O)c3cccs3)ccc2[nH]1 [NOCODAZOLE]
A549 [1]
  IC50: 0.272 µM

## COc1ccc(C(C)(O)c2nc(-c3ccoc3)nc3ccccc23)cc1 (centres undefined)
HeLa [3]
  Activity: 100%
HeLa [4]
  Activity: 0%
HeLa [5]
  Activity: 33%
HeLa [6]
  Activity: 0%
HeLa [7]
  Activity: 43%
HCT-116 [8]
  inhibition in vivo at 20 mg/kg: 62.9%
HCT-116 [9]
  IC50: 0.013 µM
HeLa [10]
  Activity: 60%
HeLa [11]
  Activity: 50%
HeLa [12]
  Activity: 52%
HCT-116 [13]
  TGI: Dose-dependent effect
HeLa [14]
  Activity: 50%
HeLa [15]
  Activity: 0%
HeLa [16]
  Activity: 52%
HeLa [17]
  Activity: 0%
HCT-116 [18]
  inhibition in vivo at 10 mg/kg: 24.6%
HeLa [19]
  Activity: 0%
HeLa [20]
  Activity: 0%
HeLa [21]
  Activity: 0%
HeLa [22]
  Activity: 0%
HeLa [23]
  Activity: 67%
HeLa [24]
  Activity: 57%
HeLa [25]
  Activity: 5.8%
HeLa [26]
  Activity: 44.2%
A549 [1]
  IC50: 0.013 µM

## COc1ccc(C(C)(O)c2nc(N3CCSCC3)nc3ccccc23)cc1 (centres undefined)
A549 [1]
  IC50: 2.44 µM

## COc1ccc(C(C)(O)c2nc(-c3ccccc3O)nc3ccccc23)cc1 (centres undefined)
A549 [1]
  IC50: 0.223 µM

## COc1ccc(C(C)(O)c2nc(N3CC=CCC3)nc3ccccc23)cc1 (centres undefined)
A549 [1]
  IC50: 0.71 µM

## COc1ccc(C(C)(O)c2nc(N3CCCC3)nc3ccccc23)cc1 (centres undefined)
A549 [1]
  IC50: 1.26 µM
